Laboratory results published in ChEMBL document CHEMBL1137616, “Poorly soluble marketed drugs display solvation limited solubility” (J Med Chem, 2007).
≈ marks a conversion by molar mass, not a printed value.

assay: Solubility by shake flask method

| Compound | Solubility [µM] |
| --- | --- |
| CCCSc1ccc2nc(NC(=O)OC)[nH]c2c1 [ALBENDAZOLE] | 0.983 (≈ 0.261 µg/mL) |
| COc1ccc(CCN2CCC(Nc3nc4ccccc4n3Cc3ccc(F)cc3)CC2)cc1 [ASTEMIZOLE] | 0.0668 (≈ 0.0306 µg/mL) |
| COc1ccccc1OCCNCC(O)COc1cccc2[nH]c3ccccc3c12 (configuration not stated) [CARVEDILOL] | 0.713 (≈ 0.29 µg/mL) |
| CCOC(=O)C1=C(C)NC(C)=C(C(=O)OC)C1c1cccc(Cl)c1Cl (configuration not stated) [FELODIPINE] | 0.276 (≈ 0.106 µg/mL) |
| CCC1=C(C)CN(C(=O)NCCc2ccc(S(=O)(=O)NC(=O)N[C@H]3CC[C@H](C)CC3)cc2)C1=O [GLIMEPIRIDE] | 0.0127 (≈ 0.00623 µg/mL) |
| COc1ccc(Cl)cc1C(=O)NCCc1ccc(S(=O)(=O)NC(=O)NC2CCCCC2)cc1 [GLYBURIDE] | 0.0891 (≈ 0.044 µg/mL) |

Second part, the compound after the results:

| Solubility [µM] | Compound |
| --- | --- |
| 1.1333 (≈ 0.405 µg/mL) | COc1ccc2c(c1)c(CC(=O)O)c(C)n2C(=O)c1ccc(Cl)cc1 [INDOMETHACIN] |
| 0.0033 (≈ 0.00233 µg/mL) | CCC(C)n1ncn(-c2ccc(N3CCN(c4ccc(OCC5COC(Cn6cncn6)(c6ccc(Cl)cc6Cl)O5)cc4)CC3)cc2)c1=O (configuration not stated) [ITRACONAZOLE] |
| 0.0965 (≈ 0.0448 µg/mL) | Cc1c(C(=O)NN2CCCCC2)nn(-c2ccc(Cl)cc2Cl)c1-c1ccc(Cl)cc1 [RIMONABANT] |
| 0.0116 (≈ 0.00547 µg/mL) | CC(C)(C)c1ccc(C(O)CCCN2CCC(C(O)(c3ccccc3)c3ccccc3)CC2)cc1 (configuration not stated) [TERFENADINE] |
| 0.0136 (≈ 0.00356 µg/mL) | Cc1c(Cl)cccc1Nc1ccccc1C(=O)O [TOLFENAMIC ACID] |
| < 0.0159 | Cc1c(C)c2c(c(C)c1O)CCC(C)(COc1ccc(CC3SC(=O)NC3=O)cc1)O2 (configuration not stated) [TROGLITAZONE] |
